Experimental data taken from patent US20250179055A1, “Substituted 2-(pyrrolidine-3-yl)acetic acid derivative, preparation method and use thereof” (INNOVSTONE THERAPEUTICS LIMITED, priority 2023, published 2025).

Each compound was assayed against Lp(a) assembly in HepG2 cells overexpressing ApoA protein (Homo sapiens (Human), UniProt P08519) (assay: ELISA assay on screening Lp(a) assembly inhibition). Conditions: not given.
Assay type: cell-based
Method: Test Example 1 and Methods of ELISA Assay on Screening Lp(a) Assembly Inhibition
• 1) Preheated the culture media, DPBS, and pancreatin in a 37° C. water bath in advance. • 2) Digested cells with pancreatin, transferred the cell suspension to a 15 mL centrifuge tube, and centrifuged at 1000 rpm for 5 min. • 3) Resuspended the cells with culture media and transferred the cell suspension to a new T75 cell culture flask. • 4) Cultured at 37° C. in a 5% CO2 incubator.
• 1) Seeded HepG2 cells overexpressing of ApoA protein into a 96-well plate at 100 μL per well and incubated overnight for attachment. • 2) Replaced with fresh culture media the next day, then added diluted compounds, and cultured the cell plate in a 5% CO2, 37° C. incubator for 24 h.
• 1) Added 10 μL of 1.5 M EACA to each well. • 2) Centrifuged at 1000 rpm for 1 min, and transferred 100 μL of cell culture supernatant to a pre-coated ELISA plate.
• 1) Added 100 μL of capture antibody to each well of a pre-coated ELISA plate and incubated overnight at 25° C. • 2) Added 300 μL of washing solution to each well and washed 5 times for 1 min each time. • 3) Added 100 μL of blocking solution to each well and incubated at 25° C. for 2 h. • 4) Added 300 μL of washing solution to each well and washed 5 times for 1 min each time. • 5) Added 100 μL of sample to each well and incubated at 25° C. for 1 h. • 6) Added 300 μL of washing solution to each well and washed 5 times for 1 min each time. • 7) Added 100 μL of detection antibody to each well and incubated at 25° C. for 1 h. • 8) Added 300 μL of washing solution to each well and washed 5 times for 1 min each time. • 9) Added 100 μL substrate solution (Color Reagent A: Color Reagent B, 1:1) to each well and incubated for 20 min at 25° C. in the dark. • 10) Added […] of stop solution to each well, gently blowed and sucked several times with the pipette tip, and read within 5 min.
[formula] • X: cpd concentration • Y: inhibition % • Top and Bottom: Plateaus in same units as Y • log IC50: same log units as X • HillSlope: Slope factor or Hill slope

Lp(a) assembly in HepG2 cells overexpressing ApoA protein, sequence (P08519 20-2040): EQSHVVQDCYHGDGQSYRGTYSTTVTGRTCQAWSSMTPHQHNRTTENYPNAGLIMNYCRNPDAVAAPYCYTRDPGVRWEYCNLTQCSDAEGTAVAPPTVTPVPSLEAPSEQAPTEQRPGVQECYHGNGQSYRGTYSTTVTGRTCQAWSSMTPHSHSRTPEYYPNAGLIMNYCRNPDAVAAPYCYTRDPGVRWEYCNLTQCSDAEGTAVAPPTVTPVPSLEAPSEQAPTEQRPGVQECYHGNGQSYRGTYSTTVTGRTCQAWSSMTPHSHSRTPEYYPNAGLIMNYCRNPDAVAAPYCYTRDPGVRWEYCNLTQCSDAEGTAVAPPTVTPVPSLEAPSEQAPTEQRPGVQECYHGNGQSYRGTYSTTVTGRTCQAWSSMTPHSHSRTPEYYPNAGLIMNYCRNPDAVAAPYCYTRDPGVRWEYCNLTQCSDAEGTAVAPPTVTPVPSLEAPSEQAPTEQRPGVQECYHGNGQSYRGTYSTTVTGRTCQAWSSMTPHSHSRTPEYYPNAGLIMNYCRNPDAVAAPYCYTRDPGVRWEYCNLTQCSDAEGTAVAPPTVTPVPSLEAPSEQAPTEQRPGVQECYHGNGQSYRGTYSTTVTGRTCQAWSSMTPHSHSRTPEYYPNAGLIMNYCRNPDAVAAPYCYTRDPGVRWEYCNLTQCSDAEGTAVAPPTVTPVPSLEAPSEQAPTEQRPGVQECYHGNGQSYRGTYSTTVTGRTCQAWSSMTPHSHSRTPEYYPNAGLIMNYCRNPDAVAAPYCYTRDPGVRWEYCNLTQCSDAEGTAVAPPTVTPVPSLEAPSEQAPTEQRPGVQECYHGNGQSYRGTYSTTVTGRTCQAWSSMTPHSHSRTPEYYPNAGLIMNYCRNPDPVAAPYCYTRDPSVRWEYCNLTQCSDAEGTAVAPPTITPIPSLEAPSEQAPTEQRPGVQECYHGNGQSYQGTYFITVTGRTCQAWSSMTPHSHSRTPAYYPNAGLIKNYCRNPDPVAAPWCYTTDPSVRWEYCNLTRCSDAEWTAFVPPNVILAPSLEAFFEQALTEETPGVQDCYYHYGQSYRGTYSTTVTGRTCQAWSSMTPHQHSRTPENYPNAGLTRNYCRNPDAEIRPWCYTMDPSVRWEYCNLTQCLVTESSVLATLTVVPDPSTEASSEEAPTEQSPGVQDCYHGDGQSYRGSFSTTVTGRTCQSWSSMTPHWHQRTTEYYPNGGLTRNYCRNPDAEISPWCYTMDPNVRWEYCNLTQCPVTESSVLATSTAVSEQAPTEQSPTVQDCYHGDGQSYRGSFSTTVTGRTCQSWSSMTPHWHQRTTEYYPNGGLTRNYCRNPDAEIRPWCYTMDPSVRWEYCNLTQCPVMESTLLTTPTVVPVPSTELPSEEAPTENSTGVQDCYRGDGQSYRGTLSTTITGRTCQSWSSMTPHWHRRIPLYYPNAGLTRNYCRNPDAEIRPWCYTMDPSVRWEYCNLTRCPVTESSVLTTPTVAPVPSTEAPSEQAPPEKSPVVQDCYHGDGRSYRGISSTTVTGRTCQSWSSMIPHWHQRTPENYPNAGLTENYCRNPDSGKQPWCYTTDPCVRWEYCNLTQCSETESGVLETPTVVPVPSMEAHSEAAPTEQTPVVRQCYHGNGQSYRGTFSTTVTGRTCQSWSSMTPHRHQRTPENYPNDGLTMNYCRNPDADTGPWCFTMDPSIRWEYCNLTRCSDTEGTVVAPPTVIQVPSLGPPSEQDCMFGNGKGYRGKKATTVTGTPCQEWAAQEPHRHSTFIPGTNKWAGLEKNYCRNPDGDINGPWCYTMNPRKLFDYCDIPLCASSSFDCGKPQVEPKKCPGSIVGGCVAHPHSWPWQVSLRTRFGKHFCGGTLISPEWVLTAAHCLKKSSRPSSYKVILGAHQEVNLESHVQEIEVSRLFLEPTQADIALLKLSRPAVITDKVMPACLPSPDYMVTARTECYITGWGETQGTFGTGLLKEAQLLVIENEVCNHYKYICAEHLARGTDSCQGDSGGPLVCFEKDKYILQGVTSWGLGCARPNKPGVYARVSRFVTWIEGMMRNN

Compound	IC50 [nM]
O=C(O)[C@@H](Cc1ncc(CN(Cc2cnc(C[C@H](C(=O)O)[C@H]3CCNC3)s2)Cc2cnc(C[C@H](C(=O)O)[C@H]3CCNC3)s2)s1)[C@H]1CCNC1 [Compound 121, (2S,2′S,2″S)-3,3′,3″-((nitrilotris(methylene))tris(thiazole-5,2-diyl))tris(2-((R)-pyrrolidin-3-yl)propanoic acid)]	1.53

Same assay, conditions: HepG2 cells overexpressing ApoA protein, 24 h, ELISA of supernatant

Compound	IC50 [nM]
O=C(O)[C@@H](Cc1cccc(CN(Cc2cccc(C[C@H](C(=O)O)[C@H]3CCNC3)c2)Cc2coc3ccc(C[C@H](C(=O)O)[C@H]4CCNC4)cc23)c1)[C@H]1CCNC1 [Compound 6, (2S,2′S)-3,3′-(((((5-((S)-2-carboxy-2-((R)-pyrrolidin-3-yl)ethyl)benzofuran-3-yl)methyl)azanediyl)bis(methylene))bis(3,1-phenylene))bis(2-((R)-pyrrolidin-3-yl)propanoic acid)]	1.13
O=C(O)[C@@H](Cc1cccc(CCN(CCOc2cccc(C[C@H](C(=O)O)[C@H]3CCNC3)c2)CCc2cccc(C[C@H](C(=O)O)[C@H]3CCNC3)c2)c1)[C@H]1CCNC1 [Compound 71, (2S,2′S)-3,3′-((((2-(3-((S)-2-carboxy-2-((R)-pyrrolidin-3-yl)ethyl)phenoxy)ethyl)azanediyl)bis(ethane-2,1-diyl))bis(3,1-phenylene))bis(2-((R)-pyrrolidin-3-yl)propanoic acid)]	0.54
O=C(O)[C@@H](Cc1noc2cc(CN(Cc3ccc4c(C[C@H](C(=O)O)[C@H]5CCNC5)noc4c3)Cc3ccc4c(C[C@H](C(=O)O)[C@H]5CCNC5)noc4c3)ccc12)[C@H]1CCNC1 [Compound 144, (2S,2′S,2″S)-3,3′,3″-((nitrilotris(methylene))tris(benzo[d]isoxazole-6,3-diyl))tris(2-((R)-pyrrolidin-3-yl)propanoic acid)]	1.18
[2H]C([2H])(c1cccc(C[C@H](C(=O)O)[C@H]2CCNC2)c1)N(Cc1cccc(C[C@H](C(=O)O)[C@H]2CCNC2)c1)C([2H])([2H])c1cccc(C[C@H](C(=O)O)[C@H]2CCNC2)c1 [Compound 93, (2S,2′S)-3,3′-((((3-((S)-2-carboxy-2-((R)-pyrrolidin-3-yl)ethyl)benzyl)azanediyl)bis(methylene-d2))bis(3,1-phenylene))bis(2-((R)-pyrrolidin-3-yl)propanoic acid)]	0.81
O=C(O)[C@@H](Cc1cccc(COc2cc(OCc3cccc(C[C@H](C(=O)O)[C@H]4CCNC4)c3)cc(OCc3cccc(C[C@H](C(=O)O)[C@H]4CCNC4)c3)c2)c1)[C@H]1CCNC1 [Compound 122, (2S,2′S,2″S)-3,3′,3″-(((benzene-1,3,5-triyltris(oxy))tris(methylene))tris(benzene-3,1-diyl))tris(2-((R)-pyrrolidin-3-yl)propanoic acid)]	1.87
O=C(CN(CCOc1cccc(C[C@H](C(=O)O)[C@H]2CCNC2)c1)CCOc1cccc(C[C@H](C(=O)O)[C@H]2CCNC2)c1)c1cccc(C[C@H](C(=O)O)[C@H]2CCNC2)c1 [Compound 112, (2S,2′S)-3,3′-(((((2-(3-((S)-2-carboxy-2-((R)-pyrrolidin-3-yl)ethyl)phenyl)-2-oxoethyl)azanediyl)bis(ethane-2,1-diyl))bis(oxy))bis(3,1-phenylene))bis(2-((R)-pyrrolidin-3-yl)propanoic acid)]	3.4
O=C(O)[C@@H](Cc1cccc(OCc2cc(COc3cccc(C[C@H](C(=O)O)[C@H]4CCNC4)c3)cc(COc3cccc(C[C@H](C(=O)O)[C@H]4CCNC4)c3)c2)c1)[C@H]1CCNC1 [Compound 149, (2S,2′S,2″S)-3,3′,3″-(((benzene-1,3,5-triyltris(methylene))tris(oxy))tris(benzene-3,1-diyl))tris(2-((R)-pyrrolidin-3-yl)propanoic acid)]	2.53
O=C(O)[C@@H](Cc1cccc(CN2CCN(Cc3cccc(C[C@H](C(=O)O)[C@H]4CCNC4)c3)CC2)c1)[C@H]1CCNC1 [Compound 117, (2S,2′S)-3,3′-((piperazine-1,4-diylbis(methylene))bis(3,1-phenylene))bis(2-((R)-pyrrolidin-3-yl)propanoic acid)]	2.58
O=C(O)[C@@H](Cc1cccc(COCC2CN(Cc3cccc(C[C@H](C(=O)O)[C@H]4CCNC4)c3)CCN2Cc2cccc(C[C@H](C(=O)O)[C@H]3CCNC3)c2)c1)[C@H]1CCNC1 (stereo partly drawn) [Compound 132, (2S,2′S)-3,3′-(((2-(((3-((S)-2-carboxy-2-((R)-pyrrolidin-3-yl)ethyl)benzyl)oxy)methyl)piperazine-1,4-diyl)bis(methylene))bis(3,1-phenylene))bis(2-((R)-pyrrolidin-3-yl)propanoic acid)]	0.88
O=C(O)[C@@H](Cc1cccc(CN(CCOc2cccc(C[C@H](C(=O)O)[C@H]3CCNC3)c2)C(=O)Oc2cccc(C[C@H](C(=O)O)[C@H]3CCNC3)c2)c1)[C@H]1CCNC1 [Compound 139, (S)-3-(3-(2-((3-((S)-2-carboxy-2-((R)-pyrrolidin-3-yl)ethyl)benzyl)((3-((S)-2-carboxy-2-((R)-pyrrolidin-3-yl)ethyl)phenoxy)carbonyl)amino)ethoxy)phenyl)-2-((R)-pyrrolidin-3-yl)propanoic acid]	0.66
O=C(CN(CCOc1cccc(C[C@H](C(=O)O)[C@H]2CCNC2)c1)CC(=O)c1cccc(C[C@H](C(=O)O)[C@H]2CCNC2)c1)c1cccc(C[C@H](C(=O)O)[C@H]2CCNC2)c1 [Compound 80, (2S,2′S)-3,3′-((2,2′-((2-(3-((S)-2-carboxy-2-((R)-pyrrolidin-3-yl)ethyl)phenoxy)ethyl)azanediyl)bis(acetyl))bis(3,1-phenylene))bis(2-((R)-pyrrolidin-3-yl)propanoic acid)]	2.31
N[C@@H](CCCCN(Cc1cc(F)cc(C[C@H](C(=O)O)[C@H]2CCNC2)c1)Cc1cc(F)cc(C[C@H](C(=O)O)[C@H]2CCNC2)c1)C(=O)O [Compound 5, (2S,2′S)-3,3′-(((((S)-5-amino-5-carboxypentyl)azanediyl)bis(methylene))bis(5-fluoro-3,1-phenylene))bis(2-((R)-pyrrolidin-3-yl)propanoic acid)]	4.12
O=C(CN(Cc1cccc(C[C@H](C(=O)O)[C@H]2CCNC2)c1)Cc1cccc(C[C@H](C(=O)O)[C@H]2CCNC2)c1)c1cccc(C[C@H](C(=O)O)[C@H]2CCNC2)c1 [Compound 130, (2S,2′S)-3,3′-((((2-(3-((S)-2-carboxy-2-((R)-pyrrolidin-3-yl)ethyl)phenyl)-2-oxoethyl)azanediyl)bis(methylene))bis(3,1-phenylene))bis(2-((R)-pyrrolidin-3-yl)propanoic acid)]	1.45
O=C(O)[C@@H](Cc1cccc(CC(=O)N(CCOc2cccc(C[C@H](C(=O)O)[C@@H]3CCNC3)c2)Cc2cccc(C[C@H](C(=O)O)[C@@H]3CCNC3)c2)c1)[C@@H]1CCNC1 [Compound 210, (S)-3-(3-(2-((3-((S)-2-carboxy-2-((S)-pyrrolidin-3-yl)ethyl)benzyl)(2-(3-((S)-2-carboxy-2-((S)-pyrrolidin-3-yl)ethyl)phenoxy)ethyl)amino)-2-oxoethyl)phenyl)-2-((S)-pyrrolidin-3-yl)propanoic acid]	1.52
O=C(O)[C@@H](Cc1csc2ccc(CN(Cc3ccc4scc(C[C@H](C(=O)O)[C@H]5CCNC5)c4c3)Cc3ccc4scc(C[C@H](C(=O)O)[C@H]5CCNC5)c4c3)cc12)[C@H]1CCNC1 [Compound 128, (2S,2′S,2″S)-3,3′,3″-((nitrilotris(methylene))tris(benzo[b]thiophene-5,3-diyl))tris(2-((R)-pyrrolidin-3-yl)propanoic acid)]	1.34
